Data as given in US8686115B2, “Compositions and methods for quantitatively monitoring lipids” (The Board of Trustees of the University of Illinois, priority 2009, dated 2014).

How the values were obtained:
[1] = molecular target: T1, DAN-eENTH: epsin 1 ENTH domain variant M10C/C96A/S4W, SEQ ID NO: 2, labeled with DAN at C10 (Homo sapiens, UniProt Q9Y6I3, C96A/M10C/S4W); experiment: Spectrofluorometry of DAN-eENTH binding to PtdIns(4,5)P2-containing LUVs
T1 construct: The Epsin1 ENTH domain (1-158 amino acids) was subcloned; GST (C, cleaved yes); made in house; host or cells: E. coli BL21 RIL codon plus
T1 sequence (Q9Y6I3 1-158 S4W/M10C/C96A): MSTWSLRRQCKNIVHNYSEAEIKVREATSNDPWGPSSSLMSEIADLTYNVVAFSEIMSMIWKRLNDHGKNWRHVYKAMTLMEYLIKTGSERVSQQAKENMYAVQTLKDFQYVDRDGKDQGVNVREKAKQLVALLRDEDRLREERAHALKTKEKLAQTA
Description: To check the feasibility of PtdIns(4,5)P2 quantification using our sensor, the change in fluorescence emission of DAN-eENTH upon membrane binding was measured by spectrofluorometry.
The theoretic curve was then constructed using these parameters.
Hitachi F-4500 spectrofluorometer was used for all cuvette-based fluorescence measurements. DAN-eENTH (typically 500 nM) was added to POPC/POPS/PtdIns(4,5)P2 (80-x:20:x) (x=0-3 mol %) LUV and the emission spectra of DAN were measured with excitation wavelength set at 392 nm. The same measurements were repeated with LUVs made of different phosphoinositides, e.g., POPC/POPS/PtdIns(3,4,5)P3 (77:20:3).

PLCδ-PH (PLCδ PH domain) = molecular target: T2, PLCδ-PH (PLCδ PH domain) (Homo sapiens, UniProt P51178); experiment: SPR equilibrium binding of PLCδ-PH to phosphoinositide-containing LUVs; conditions: POPC/POPS/PtdIns(4,5)P2 (77:20:3) LUVs, 20 mM Tris-HCl pH 7.4, 0.16 M KCl, read-out: Kd for PtdIns(4,5)P2
T2 sequence (P51178 21-130 limits assumed): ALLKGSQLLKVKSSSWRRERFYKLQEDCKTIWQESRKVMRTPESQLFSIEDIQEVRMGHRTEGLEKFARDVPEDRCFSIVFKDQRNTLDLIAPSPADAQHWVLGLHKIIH
Description: With respect to FIG. […] The proteins were incubated with a given concentration of IP3 for 5 minutes before injecting into the SPR instrument. Kinetic SPR measurements were performed in 20 mM Tris-HCL, pH 7.4, containing 0.16 KCl. […] A lower concentration of DAN-eENTH was used than that of PLCδ PH because the former has much higher affinity that the latter.
LUVs were prepared by extrusion using a 100 nm-pore membrane. GUVs were prepared by electroformation. The lipid mixture were prepared in chloroform/methanol (3:1) at a total concentration of 0.4 mg/ml, then the lipid solution was spread onto the indium-tin oxide electrode surface and the lipid was dried under vacuum to form a uniform lipid film. Vesicles were grown in a sucrose solution (350 mM) while an electric field (3V, 20 Hz frequency) was applied for 5 hour at room temperature. After 1 to […] of sucrose-loaded GUV solution was added into a well glued onto a coverslip that was placed on the microscope stage. The well contained […] of 20 mM Tris-HCl buffer, pH 7.4, with 0.16 M KCl solution. The diameter of GUVs ranged from 5 to 30 μm.

[2] = molecular target: T3, epsin 1 ENTH domain (SEQ ID NO: 1) variant C96A/S4W (eENTH; SEQ ID NO: 2) (Homo sapiens, UniProt Q9Y6I3, C96A/M10C/S4W); experiment: SPR equilibrium binding of epsin1 ENTH C96A/S4W (eENTH) to phosphoinositide-containing LUVs; conditions: S4W mutant
T3 construct: The Epsin1 ENTH domain (1-158 amino acids) was subcloned; GST (C, cleaved yes); made in house; host or cells: E. coli BL21 RIL codon plus
T3 sequence (Q9Y6I3 1-158 S4W/M10C/C96A): T1 sequence (Q9Y6I3 1-158 S4W/M10C/C96A)
From the text: (§1) The ENTH domain was engineered to introduce a single labeling site (M10C) on the membrane binding surface while removing an endogenous Cys (C96A). We also performed the S4W mutation to suppress its residual affinity for another lipid, phosphatidylinositol-3,4,5-trisphosphate (PtdIns(3,4,5)P3) (PtdIns(4,5)P2/PtdIns(3,4,5)P3=4 for wild type and >10 for the mutant) and to enhance the overall affinity for PtdIns(4,5)P2-containing membranes (ca. 4-fold) (Table 1).
(§2) With respect to FIG. 1, an L1 sensor chip was coated with POPC/POPS/PtdIns(4,5)P2 (77:20:3) LUVs. The proteins were incubated with a given concentration of IP3 for 5 minutes before injecting into the SPR instrument. Kinetic SPR measurements were performed in 20 mM Tris-HCL, pH 7.4, containing 0.16 KCl. […] A lower concentration of DAN-eENTH was used than that of PLCδ PH because the former has much higher affinity that the latter. […]
(§3) E. coli BL21 RIL codon plus (Stratagene) cells were used for protein expression. […] Purity and the concentration of the recombinant proteins were determined by sodium dodecylsulfate-polyacrylamide gel electrophoresis and bicinchoninic acid assay, respectively. The DAN labeling yield of eENTH, which was calculated as the molar ratio of DAN (determined spectrophotometrically at 391 nm using its extinction coefficient of 20,000 cm^−1 M^−1) to protein, was typically 60-70%. […]

[3] = test system: epsin 1 ENTH domain (SEQ ID NO: 1) variant C96A/S4W (eENTH; SEQ ID NO: 2); experiment: as above; conditions: S4W mutation, Table 1
From the text: as §1, §2, §3

CCCCCCCCCCCCCCCC(=O)OC[C@H](COP(=O)(O)O[C@@H]1[C@H](O)[C@H](O)[C@@H](OP(=O)(O)O)[C@H](OP(=O)(O)O)[C@H]1O)OC(=O)CCCCCCCCCCCCCCC [PtdIns(4,5)P2, phosphatidylinositol-4,5-bisphosphate]
Kd for PtdIns(4,5)P2 (F450/F520 ratiometric analysis) ([1]; F450/F520 versus [PtdIns(4,5)P2], LUVs): 1.2+/−0.2 mol %
Kd for PtdIns(4,5)P2 (F450 analysis) ([1]; F450 versus [PtdIns(4,5)P2], 500 nM DAN-eENTH, LUVs): 1.2+/−0.2 mol %
Kd ([1]; F450 versus [PtdIns(4,5)P2], assumes only half of total lipids available to the sensor, read-out: Kd for PtdIns(4,5)P2 (F450 analysis, converted)): 60 nM
Kd (PLCδ-PH (PLCδ PH domain)): 180 nM
PtdIns(4,5)P2/PtdIns(3,4,5)P3 selectivity [2]: > 10
enhancement of overall affinity for PtdIns(4,5)P2-containing membranes [3]: ca. 4 fold
